Activity calls are given as the source filed them. No cut-off for these calls is given here.
How the values were obtained:
[1] = molecular target: Amyloid-beta precursor protein (Homo sapiens) (UniProt P05067); assay: (§1) Inhibition of amyloid beta (25 to 35 residues) (unknown origin)-induced toxicity in rat PC12 cells assessed as increase in cell viability at 50 ug/ml preincubated for 2 hrs followed by amyloid beta (25 to 35 residues) addition measured after 24 hrs by MTT dye based light microscopic assay (reference value: 48%); conditions: at 50 µg/mL
Amyloid-beta precursor protein (Homo sapiens), sequence (P05067 whole entry, the tested form may be a part): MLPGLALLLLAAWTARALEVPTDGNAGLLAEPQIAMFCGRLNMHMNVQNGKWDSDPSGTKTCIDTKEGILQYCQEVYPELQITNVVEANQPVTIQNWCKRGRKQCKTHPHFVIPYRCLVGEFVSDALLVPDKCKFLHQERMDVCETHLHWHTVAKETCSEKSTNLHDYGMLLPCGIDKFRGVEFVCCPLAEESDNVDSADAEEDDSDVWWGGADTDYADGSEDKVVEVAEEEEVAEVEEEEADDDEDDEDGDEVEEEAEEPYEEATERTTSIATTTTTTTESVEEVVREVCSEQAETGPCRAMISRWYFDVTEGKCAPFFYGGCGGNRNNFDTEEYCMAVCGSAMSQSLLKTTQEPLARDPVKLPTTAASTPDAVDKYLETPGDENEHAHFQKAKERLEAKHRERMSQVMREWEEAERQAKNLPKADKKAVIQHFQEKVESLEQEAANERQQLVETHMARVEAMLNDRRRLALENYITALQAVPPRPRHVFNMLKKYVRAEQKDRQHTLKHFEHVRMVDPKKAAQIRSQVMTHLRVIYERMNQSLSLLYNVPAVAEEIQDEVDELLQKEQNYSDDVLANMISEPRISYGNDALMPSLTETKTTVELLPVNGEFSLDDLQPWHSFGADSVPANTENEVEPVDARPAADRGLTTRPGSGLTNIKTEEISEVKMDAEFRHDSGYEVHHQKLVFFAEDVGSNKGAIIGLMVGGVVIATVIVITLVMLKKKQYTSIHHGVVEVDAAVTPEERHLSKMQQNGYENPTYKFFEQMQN

[2] = molecular target: Amyloid-beta precursor protein (Homo sapiens) (UniProt P05067); assay: (§2) Inhibition of amyloid beta (25 to 35 residues) (unknown origin)-induced toxicity in rat PC12 cells assessed as protection against amyloid beta (25 to 35 residues)-induced apoptosis by measuring necrotic cells at 50 ug/ml by Annexin V-FITC/propidium iodide staining-based flow cytometric method (reference value: 0.73%); type: cell-based; set-up: scale not given: the % may be the effect or the level left; conditions: at 50 µg/mL
[3] = molecular target: Amyloid-beta precursor protein (Homo sapiens) (UniProt P05067); assay: as §2, with “viable” for “necrotic”, “48.71%)” for “0.73%)”; type: cell-based; conditions: at 50 µg/mL
[4] = molecular target: Amyloid-beta precursor protein (Homo sapiens) (UniProt P05067); conditions: at 50 µg/mL
Description: Inhibition of amyloid beta (25 to 35 residues) (unknown origin)-induced toxicity in rat PC12 cells assessed as cell survival at 50 ug/ml after 1 to 3 weeks by clonogenic assay (Rvb = 25%)

[5] = molecular target: Amyloid-beta precursor protein (Homo sapiens) (UniProt P05067); assay: as §2, with “late apoptotic” for “necrotic”, “4.56%)” for “0.73%)”; type: cell-based; set-up: scale not given: the % may be the effect or the level left; conditions: at 50 µg/mL
[6] = molecular target: Amyloid-beta precursor protein (Homo sapiens) (UniProt P05067); assay: as §2, with “early apoptotic” for “necrotic”, “46%)” for “0.73%)”; type: cell-based; set-up: scale not given: the % may be the effect or the level left; conditions: at 50 µg/mL
[7] = molecular target: Amyloid-beta precursor protein (Homo sapiens) (UniProt P05067); assay: as §2, with “early apoptotic” for “necrotic”, “5” for “50”, “46%)” for “0.73%)”; type: cell-based; set-up: scale not given: the % may be the effect or the level left
[8] = molecular target: Amyloid-beta precursor protein (Homo sapiens) (UniProt P05067); assay: Disaggregation of amyloid beta (25 to 35 residues) (unknown origin) preformed fibrils at 5 ug/ml after 96 hrs to 9 days by thioflavin T dye based confocal laser scanning microscopy
[9] = molecular target: Amyloid-beta precursor protein (Homo sapiens) (UniProt P05067); assay: Inhibition of amyloid beta (25 to 35 residues) (unknown origin) aggregation at 5 ug/ml after 24 to 48 hrs by FTIR spectroscopy
Acetylcholinesterase = Acetylcholinesterase (Homo sapiens, UniProt P22303); assay: Inhibition of AChE (unknown origin) preincubated for 45 mins followed by ATCI substrate addition measured for 3 mins
Acetylcholinesterase, sequence (P22303 whole entry, the tested form may be a part): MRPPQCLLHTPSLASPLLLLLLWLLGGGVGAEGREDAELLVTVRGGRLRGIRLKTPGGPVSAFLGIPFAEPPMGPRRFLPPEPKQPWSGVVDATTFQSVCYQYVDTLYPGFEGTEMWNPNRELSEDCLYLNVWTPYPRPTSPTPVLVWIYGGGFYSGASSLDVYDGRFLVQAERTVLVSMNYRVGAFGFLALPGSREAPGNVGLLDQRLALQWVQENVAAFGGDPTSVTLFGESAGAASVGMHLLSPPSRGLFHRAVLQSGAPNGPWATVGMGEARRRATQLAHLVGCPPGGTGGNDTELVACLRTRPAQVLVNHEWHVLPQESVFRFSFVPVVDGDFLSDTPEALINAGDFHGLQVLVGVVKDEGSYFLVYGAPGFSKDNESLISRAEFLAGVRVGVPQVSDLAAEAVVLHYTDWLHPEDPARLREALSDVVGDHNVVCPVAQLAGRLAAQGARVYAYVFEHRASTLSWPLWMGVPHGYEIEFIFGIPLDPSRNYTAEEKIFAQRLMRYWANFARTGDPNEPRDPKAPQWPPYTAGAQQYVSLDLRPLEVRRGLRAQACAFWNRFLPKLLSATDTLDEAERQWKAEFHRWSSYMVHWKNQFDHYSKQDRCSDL

[10] = molecular target: Amyloid-beta precursor protein (Homo sapiens) (UniProt P05067); assay: Inhibition of amyloid beta (25 to 35 residues) (unknown origin) aggregation at 5 ug/ml after 24 to 48 hrs by phosphotungstic acid staining based transmission electron microscopy
[11] = molecular target: Amyloid-beta precursor protein (Homo sapiens) (UniProt P05067); assay: as §1, with “2 to 10” for “50”
[12] = molecular target: Amyloid-beta precursor protein (Homo sapiens) (UniProt P05067); assay: Disaggregation of amyloid beta (25 to 35 residues) (unknown origin) preformed fibrils at 5 ug/ml after 96 hrs to 9 days by phosphotungstic acid staining based transmission electron microscopy
[13] = molecular target: Amyloid-beta precursor protein (Homo sapiens) (UniProt P05067); assay: Disaggregation of amyloid beta (25 to 35 residues) (unknown origin) preformed fibrils at 5 ug/ml after 96 hrs to 9 days by ThT-based fluorescence spectroscopic method
[14] = molecular target: Amyloid-beta precursor protein (Homo sapiens) (UniProt P05067); assay: Inhibition of amyloid beta (25 to 35 residues) (unknown origin) aggregation at 5 ug/ml after 24 to 48 hrs by ThT-based fluorescence spectroscopic method
[15] = molecular target: Amyloid-beta precursor protein (Homo sapiens) (UniProt P05067); assay: as §2, with “5” for “50”; type: cell-based; set-up: scale not given: the % may be the effect or the level left
[16] = molecular target: Amyloid-beta precursor protein (Homo sapiens) (UniProt P05067); assay: as §2, with “late apoptotic” for “necrotic”, “5” for “50”, “4.56%)” for “0.73%)”; type: cell-based; set-up: scale not given: the % may be the effect or the level left
[17] = molecular target: Amyloid-beta precursor protein (Homo sapiens) (UniProt P05067); assay: Inhibition of amyloid beta (25 to 35 residues) (unknown origin)-induced toxicity in rat PC12 cells assessed as cell survival at 5 ug/ml after 1 to 3 weeks by clonogenic assay (reference value: 25%); type: cell-based
[18] = molecular target: Amyloid-beta precursor protein (Homo sapiens) (UniProt P05067); assay: Inhibition of amyloid beta (25 to 35 residues) (unknown origin) aggregation at 5 ug/ml after 24 to 48 hrs by thioflavin T dye based confocal laser scanning microscopy
[19] = molecular target: Amyloid-beta precursor protein (Homo sapiens) (UniProt P05067); assay: as §2, with “viable” for “necrotic”, “5” for “50”, “48.71%)” for “0.73%)”; type: cell-based
[20] = molecular target: Amyloid-beta precursor protein (Homo sapiens) (UniProt P05067); assay: Disaggregation of amyloid beta (25 to 35 residues) (unknown origin) preformed fibrils at 5 ug/ml after 96 hrs to 9 days by FTIR spectroscopy
[21] = molecular target: Amyloid-beta precursor protein (Homo sapiens) (UniProt P05067); assay: Disaggregation of amyloid beta (25 to 35 residues) (unknown origin) preformed fibrils at 50 ug/ml after 96 hrs to 9 days by FTIR spectroscopy
[22] = molecular target: Amyloid-beta precursor protein (Homo sapiens) (UniProt P05067); assay: Disaggregation of amyloid beta (25 to 35 residues) (unknown origin) preformed fibrils at 50 ug/ml after 96 hrs to 9 days by thioflavin T dye based confocal laser scanning microscopy
[23] = molecular target: Amyloid-beta precursor protein (Homo sapiens) (UniProt P05067); assay: Disaggregation of amyloid beta (25 to 35 residues) (unknown origin) preformed fibrils at 50 ug/ml after 96 hrs to 9 days by ThT-based fluorescence spectroscopic method
[24] = molecular target: Amyloid-beta precursor protein (Homo sapiens) (UniProt P05067); assay: Inhibition of amyloid beta (25 to 35 residues) (unknown origin) aggregation at 50 ug/ml after 24 to 48 hrs by FTIR spectroscopy
[25] = molecular target: Amyloid-beta precursor protein (Homo sapiens) (UniProt P05067); assay: Inhibition of amyloid beta (25 to 35 residues) (unknown origin) aggregation at 50 ug/ml after 24 to 48 hrs by thioflavin T dye based confocal laser scanning microscopy

## COc1cc2c(cc1OC)C(=O)C(CC1CCN(Cc3ccccc3)CC1)C2 (stereo unspecified)
[1]
  Activity: 81%
[2]
  Activity: 2%
[3]
  Activity: 96.2%
[4]
  Survival: 96%
[5]
  Activity: 0.26%
[6]
  Activity: 1.58%

## CC(C)=CCC[C@@](C)(O)[C@H]1CC=C(C)CC1
[7]
  Activity: 1.32%
[8]
  Activity: Active
[9]
  inhibition: Active
Acetylcholinesterase
  IC50: < 45 µM
[10]
  inhibition: Active
[11]
  Activity: > 80%
[12]
  Activity: Active
[13]
  Activity: Active
[14]
  inhibition: Active
[15]
  Activity: 0.62%
[16]
  Activity: 0.31%
[17]
  Survival: 96%
[18]
  inhibition: Active
[19]
  Activity: 97.8%
[20]
  Activity: Active

## COc1ccc2c3c1O[C@H]1C[C@@H](O)C=C[C@@]31CCN(C)C2
[21]
  Activity: Active
[22]
  Activity: Active
[23]
  Activity: Active
[24]
  inhibition: Active
[25]
  inhibition: Active
